# Patent US6737383B1, “Herbicidal oxadiazolidines” (priority 1999, dated 2004)
# Legend:
# duck salad = assay: Test B flood test duck salad; assay type: in vivo, Heteranthera limosa
# Procedure, shortened: (§1)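 Each value is a visual injury score relative to controls, with 10 meaning complete control and 0 no effect. Evaluation took place twelve to sixteen days after the 2-leaf-stage plants were treated and kept in the greenhouse.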
# soybean = assay: Test B pre/postemergence soybean; assay type: in vivo, Glycine max
# Procedure, shortened: (§2)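 Response is a visual 0-to-10 score relative to untreated plants, where 0 means no effect and 10 means complete control, taken twelve to sixteen days after application. Treatments went onto soil at planting and onto foliage of 1- to 4-leaf plants, using a surfactant-containing non-phytotoxic solvent.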
# giant foxtail = assay: Test B pre/postemergence giant foxtail; assay type: in vivo, Setaria faberii
# Procedure, shortened: as §2
# blackgrass = assay: Test B pre/postemergence blackgrass; assay type: in vivo, Alopecurus myosuroides
# Procedure, shortened: as §2
# bamyardgrass = assay: Test B flood test barnyardgrass; assay type: in vivo, Echinochloa crus-galli
# Procedure, shortened: as §1
# crabgrass = assay: Test B pre/postemergence crabgrass; assay type: in vivo, Digitaria sanguinalis
# Procedure, shortened: as §2
# bedstraw = assay: Test B pre/postemergence bedstraw; assay type: in vivo, Galium aparine; conditions: Postemergence
# Procedure, shortened: as §2
# wheat = assay: Test B pre/postemergence wheat; assay type: in vivo, Triticum aestivum
# Procedure, shortened: as §2
# wild oat = assay: Test B pre/postemergence wild oat; assay type: in vivo, Avena fatua
# Procedure, shortened: as §2
# rice = assay: Test B flood test rice; assay type: in vivo, Oryza sativa
# Procedure, shortened: as §1
# morningglory = assay: Test B pre/postemergence morningglory; assay type: in vivo, Ipomoea hederacea
# Procedure, shortened: as §2
# rape = assay: Test B pre/postemergence rape; assay type: in vivo, Brassica napus
# Procedure, shortened: as §2
# velvetleaf = assay: Test B pre/postemergence velvetleaf; assay type: in vivo, Abutilon theophrasti
# Procedure, shortened: as §2
# sugar beet = assay: Test B pre/postemergence sugar beet; assay type: in vivo, Beta vulgaris
# Procedure, shortened: as §2
# purple nutsedge = assay: Test B pre/postemergence purple nutsedge; assay type: in vivo, Cyperus rotundus
# Procedure, shortened: as §2
# pigweed = assay: Test B pre/postemergence pigweed; assay type: in vivo, Amaranthus retroflexus
# Procedure, shortened: as §2
# smallflower flatsedge = assay: Test B flood test smallflower flatsedge; assay type: in vivo, Cyperus difformis
# Procedure, shortened: as §1
# surinam grass = assay: Test B pre/postemergence surinam grass; assay type: in vivo, Brachiaria decumbens
# Procedure, shortened: as §2
# corn = assay: Test B pre/postemergence corn; assay type: in vivo, Zea mays
# Procedure, shortened: as §2
# cocklebur = assay: Test B pre/postemergence cocklebur; assay type: in vivo, Xanthium strumarium
# Procedure, shortened: as §2
# [1] = Rate 62 g/ha, flood test species, Pre-emergence, visual evaluation after twelve to sixteen days
# [2] = Rate 125 g/ha, under heading Pre-emergence, flood test species, visual evaluation after twelve to sixteen days
# [3] = Rate 250 g/ha, Pre-emergence (flood test species), scale 0 to 10, 0 is no effect, 10 is complete control
# [4] = Rate 500 g/ha, Pre-emergence section of Table B, 0 to 10 scale (0 no effect, 10 complete control)
# [5] = Postemergence, Rate 62 g/ha, scale 0 to 10, 0 is no effect, 10 is complete control
# [6] = Postemergence, Rate 125 g/ha, scale of 0 to 10 where 0 is no effect and 10 is complete control
# [7] = Postemergence, Rate 250 g/ha, scale of 0 to 10, 0 is no effect, 10 is complete control
# [8] = Preemergence, Rate 62 g/ha, scale 0 to 10 (0 no effect, 10 complete control)
# [9] = Preemergence, Rate 125 g/ha, scale of 0 to 10 where 0 is no effect and 10 is complete control
# [10] = Preemergence, Rate 500 g/ha, scale of 0 to 10 where 0 is no effect and 10 is complete control
# [11] = Postemergence, Rate 500 g/ha, scale of 0 to 10 where 0 is no effect and 10 is complete control
smiles,measurement,setting,value
C=C(C)Cn1c(=O)on(C(=O)N(c2ccccc2)C(C)C)c1=O [Compound 607],"Plant response rating, Ducksalad (0 to 10 scale, 0 is no effect, 10 is complete control)",duck salad; [1],0
same,"Ducksalad plant response rating (0 to 10 scale, 0 is no effect, 10 is complete control)",duck salad; [2],0
same,Ducksalad plant response rating,duck salad; [3],0
same,Ducksalad plant response rating,duck salad; [4],0
same,"Plant response rating, Soybean",soybean; [5],3
same,"Plant response rating, Soybean",soybean; [6],4
same,Soybean plant response rating,soybean; [7],6
same,Soybean plant response rating,soybean; [8],0
same,Soybean plant response rating,soybean; [9],0
same,"Plant response rating, Soybean",soybean; [10],4
same,"Plant response rating, Giant foxtail",giant foxtail; [5],6
same,"Plant response rating, Giant foxtail",giant foxtail; [6],6
same,Giant foxtail plant response rating,giant foxtail; [7],7
same,"Plant response rating, Giant foxtail",giant foxtail; [11],9
same,Giant foxtail plant response rating,giant foxtail; [8],9
same,Giant foxtail plant response rating,giant foxtail; [9],10
same,"Plant response rating, Giant foxtail",giant foxtail; [10],10
same,"Plant response rating, Blackgrass",blackgrass; [5],0
same,"Plant response rating, Blackgrass",blackgrass; [6],4
same,Blackgrass plant response rating,blackgrass; [7],6
same,"Plant response rating, Blackgrass",blackgrass; [11],7
same,Blackgrass plant response rating,blackgrass; [8],4
same,Blackgrass plant response rating,blackgrass; [9],7
same,Blackgrass plant response rating (0 to 10 scale),"blackgrass; Preemergence, Rate 250 g/ha",8
same,Blackgrass plant response rating,blackgrass; [10],9
same,"Plant response rating, Barnyardgrass (0 to 10 scale, 0 is no effect, 10 is complete control)",bamyardgrass; [1],0
same,"Barnyardgrass plant response rating (0 to 10 scale, 0 is no effect, 10 is complete control)",bamyardgrass; [2],0
same,Barnyardgrass plant response rating,bamyardgrass; [3],0
same,Barnyardgrass plant response rating,bamyardgrass; [4],0
same,"Plant response rating, Crabgrass",crabgrass; [5],5
same,Crabgrass plant response rating,crabgrass; [7],8
same,"Plant response rating, Crabgrass",crabgrass; [11],9
same,Crabgrass plant response rating,crabgrass; [8],7
same,Crabgrass plant response rating,crabgrass; [9],8
same,"Plant response rating, Crabgrass",crabgrass; [10],9
same,"Plant response rating, Bedstraw","bedstraw; Rate 62 g/ha, scale 0 to 10, 0 is no effect, 10 is complete control",0
same,"Plant response rating, Bedstraw","bedstraw; Rate 125 g/ha, scale of 0 to 10 where 0 is no effect and 10 is complete control",0
same,"Plant response rating, Wheat",wheat; [5],0
same,"Plant response rating, Wheat",wheat; [6],0
same,Wheat plant response rating,wheat; [7],2
same,"Plant response rating, Wheat",wheat; [11],4
same,Wheat plant response rating,wheat; [8],0
same,Wheat plant response rating,wheat; [9],0
same,"Plant response rating, Wheat",wheat; [10],3
same,"Plant response rating, Wild oats",wild oat; [5],0
same,"Plant response rating, Wild oats",wild oat; [6],0
same,Wild oats plant response rating,wild oat; [7],0
same,"Plant response rating, Wild oats",wild oat; [11],4
same,Wild oats plant response rating,wild oat; [8],0
same,Wild oats plant response rating,wild oat; [9],2
same,"Plant response rating, Wild oats",wild oat; [10],6
same,"Plant response rating, Rice (0 to 10 scale, 0 is no effect, 10 is complete control)",rice; [1],0
same,"Rice plant response rating (0 to 10 scale, 0 is no effect, 10 is complete control)",rice; [2],0
same,Rice plant response rating,rice; [3],0
same,Rice plant response rating,rice; [4],0
same,"Plant response rating, Morningglory",morningglory; [5],6
same,"Plant response rating, Morningglory",morningglory; [6],8
same,Morningglory plant response rating,morningglory; [7],8
same,"Plant response rating, Morningglory",morningglory; [11],10
same,Morningglory plant response rating,morningglory; [8],0
same,Morningglory plant response rating,morningglory; [9],0
same,"Plant response rating, Morningglory",morningglory; [10],0
same,"Plant response rating, Rape",rape; [5],0
same,"Plant response rating, Rape",rape; [6],0
same,Rape plant response rating,rape; [7],0
same,"Plant response rating, Rape",rape; [11],0
same,Rape plant response rating,rape; [8],0
same,Rape plant response rating,rape; [9],6
same,"Plant response rating, Rape",rape; [10],7
same,"Plant response rating, Velvetleaf",velvetleaf; [5],0
same,"Plant response rating, Velvetleaf",velvetleaf; [6],0
same,Velvetleaf plant response rating,velvetleaf; [7],3
same,"Plant response rating, Velvetleaf",velvetleaf; [11],5
same,Velvetleaf plant response rating,velvetleaf; [8],0
same,Velvetleaf plant response rating,velvetleaf; [9],3
same,"Plant response rating, Velvetleaf",velvetleaf; [10],8
same,"Plant response rating, Sugarbeets",sugar beet; [5],0
same,"Plant response rating, Sugarbeets",sugar beet; [6],0
same,Sugarbeets plant response rating,sugar beet; [7],0
same,"Plant response rating, Sugarbeets",sugar beet; [11],0
same,Sugarbeets plant response rating,sugar beet; [8],0
same,Sugarbeets plant response rating,sugar beet; [9],0
same,"Plant response rating, Sugarbeets",sugar beet; [10],5
same,"Plant response rating, Nutsedge",purple nutsedge; [5],0
same,"Plant response rating, Nutsedge",purple nutsedge; [6],0
same,Nutsedge plant response rating,purple nutsedge; [7],0
same,"Plant response rating, Nutsedge",purple nutsedge; [11],7
same,Nutsedge plant response rating,purple nutsedge; [9],0
same,"Plant response rating, Nutsedge",purple nutsedge; [10],0
same,"Plant response rating, Redroot pigweed",pigweed; [5],0
same,"Plant response rating, Redroot pigweed",pigweed; [6],0
same,Redroot pigweed plant response rating,pigweed; [7],0
same,"Plant response rating, Redroot pigweed",pigweed; [11],5
same,Redroot pigweed plant response rating,pigweed; [8],4
same,Redroot pigweed plant response rating,pigweed; [9],7
same,"Plant response rating, Redroot pigweed",pigweed; [10],10
same,"Plant response rating, S. Flatsedge (0 to 10 scale, 0 is no effect, 10 is complete control)",smallflower flatsedge; [1],0
same,"S. Flatsedge plant response rating (0 to 10 scale, 0 is no effect, 10 is complete control)",smallflower flatsedge; [2],0
same,S. Flatsedge plant response rating,smallflower flatsedge; [3],0
same,S. Flatsedge plant response rating,smallflower flatsedge; [4],0
same,"Plant response rating, B. signalgrass",surinam grass; [5],0
same,"Plant response rating, B. signalgrass",surinam grass; [6],0
same,B. signalgrass plant response rating,surinam grass; [7],4
same,"Plant response rating, B. signalgrass",surinam grass; [11],7
same,B. signalgrass plant response rating,surinam grass; [8],4
same,B. signalgrass plant response rating,surinam grass; [9],7
same,"B. signalgrass plant response rating (0 to 10 scale, 0 is no effect, 10 is complete control)","surinam grass; Preemergence, Rate 250 g/ha",8
same,B. signalgrass plant response rating,surinam grass; [10],8
same,"Plant response rating, Corn",corn; [5],0
same,"Plant response rating, Corn",corn; [6],0
same,Corn plant response rating,corn; [7],0
same,"Plant response rating, Corn",corn; [11],2
same,Corn plant response rating,corn; [8],0
same,Corn plant response rating,corn; [9],0
same,Corn plant response rating (0 to 10 scale),"corn; Preemergence, Rate 250 g/ha",0
same,"Plant response rating, Corn",corn; [10],6
same,"Plant response rating, Cocklebur",cocklebur; [5],0
same,"Plant response rating, Cocklebur",cocklebur; [6],0
same,Cocklebur plant response rating,cocklebur; [7],0
same,"Plant response rating, Cocklebur",cocklebur; [11],0
same,Cocklebur plant response rating,cocklebur; [8],0
same,Cocklebur plant response rating,cocklebur; [9],0
same,Cocklebur plant response rating (0 to 10 scale),"cocklebur; Preemergence, Rate 250 g/ha",0
same,"Plant response rating, Cocklebur",cocklebur; [10],0
